The values that follow come from patent publication US20210269451A1, “PYRIDINYL HETEROCYCLYL COMPOUNDS FOR THE TREATMENT OF AUTOIMMUNE DISEASE” (Hoffmann-La Roche Inc., priority 2018, published 2021).

In one series the target is T1, human TLR8 (Homo sapiens, UniProt Q9NR97).
T1 construct: host or cells: HEK293-Blue-hTLR-8 (HEK293)
T1 sequence (Q9NR97 27-1041): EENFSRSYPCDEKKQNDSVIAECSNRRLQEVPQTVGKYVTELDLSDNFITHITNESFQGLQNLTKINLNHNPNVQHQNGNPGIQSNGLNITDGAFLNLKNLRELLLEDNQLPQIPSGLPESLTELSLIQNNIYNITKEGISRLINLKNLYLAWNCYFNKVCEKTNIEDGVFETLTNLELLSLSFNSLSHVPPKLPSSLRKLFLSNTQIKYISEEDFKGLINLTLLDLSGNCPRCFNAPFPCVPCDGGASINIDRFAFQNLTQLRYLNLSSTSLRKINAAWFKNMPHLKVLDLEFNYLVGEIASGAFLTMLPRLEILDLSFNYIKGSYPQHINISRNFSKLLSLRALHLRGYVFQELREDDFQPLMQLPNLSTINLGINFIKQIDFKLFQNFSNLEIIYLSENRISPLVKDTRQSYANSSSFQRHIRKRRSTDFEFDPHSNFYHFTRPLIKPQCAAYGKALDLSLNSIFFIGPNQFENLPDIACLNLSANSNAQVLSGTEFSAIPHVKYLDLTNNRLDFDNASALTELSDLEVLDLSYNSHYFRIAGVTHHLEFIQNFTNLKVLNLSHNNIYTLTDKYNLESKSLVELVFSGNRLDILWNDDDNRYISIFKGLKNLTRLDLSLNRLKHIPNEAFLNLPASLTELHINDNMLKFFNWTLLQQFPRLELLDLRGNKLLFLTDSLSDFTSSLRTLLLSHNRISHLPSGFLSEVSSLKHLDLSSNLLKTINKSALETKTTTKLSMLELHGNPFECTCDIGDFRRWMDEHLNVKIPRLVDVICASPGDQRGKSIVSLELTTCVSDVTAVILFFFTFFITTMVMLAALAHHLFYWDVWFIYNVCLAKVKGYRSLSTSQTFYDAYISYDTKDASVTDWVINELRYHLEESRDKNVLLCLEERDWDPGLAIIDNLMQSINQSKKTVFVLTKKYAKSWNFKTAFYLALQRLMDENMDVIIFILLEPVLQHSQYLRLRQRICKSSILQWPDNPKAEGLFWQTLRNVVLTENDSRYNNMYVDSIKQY
Nature of the series: HEK293-Blue-hTLR-8 cells assay. The note with it: HEK293-Blue-hTLR8 cells, R848 stimulation, 20 hrs, SEAP reporter; read-out: HEK/hTLR8 IC50. Format: cell-based. Here is the method: The following tests were carried out in order to determine the activity of the compounds of formula (I) and (Ia) in HEK293-Blue-hTLR-7/8/9 cells assay.
HEK293-Blue-hTLR-8 cells assay:
A stable HEK293-Blue-hTLR-8 cell line was purchased from InvivoGen (Cat. #: hkb-htlr8, San Diego, Calif., USA). These cells were originally designed for studying the stimulation of human TLR8 by monitoring the activation of NE-κB. A SEAP (secreted embryonic alkaline phosphatase) reporter gene was placed under the control of the IFN-β minimal promoter fused to five NE-κB and AP-1-binding sites. The SEAP was induced by activating NE-κB and AP-1 via stimulating HEK-Blue hTLR8 cells with TLR8 ligands. Therefore the reporter expression was declined by TLR8 antagonist under the stimulation of a ligand, such as R848, for incubation of 20 hrs. The cell culture supernatant SEAP reporter activity was determined using QUANTI-Blue™ kit (Cat. #: rep-qbl, Invivogen, San Diego, Ca, USA) at a wavelength of 640 nm, a detection medium that turns purple or blue in the presence of alkaline phosphatase.
HEK293-Blue-hTLR8 cells were incubated at a density of 250,000-450,000 cells/mL in a volume of 170 μL in a 96-well plate in Dulbecco's Modified Eagle's medium (DMEM) containing 4.5 g/L glucose, 50 U/mL penicillin, […], […], 2 mM L-glutamine, 10% (v/v) heat-inactivated fetal bovine serum with addition of 20 μL test compound in a serial dilution in the presence of final DMSO at 1% and 10 μL of 60 uM R848 in above DMEM, perform incubation under 37° C. in a CO2 incubator for 20 hrs. Then 20 μL of the supernatant from each well was incubated with 180 μL Quanti-blue substrate solution at 37° C. for 2 hrs and the absorbance was read at 620˜655 nm using a spectrophotometer. The signalling pathway that TLR8 activation leads to downstream NE-κB activation has been widely accepted, and therefore similar reporter assay was modified for evaluating TLR8 antagonist.

A short description of series [1]: Human microsome stability assay. In kind it is in vitro ADME. The note with it: 1 μM test compound, 0.5 mg/mL liver microsomal protein, 37° C. Here is the method:
Human microsome stability assay
The human microsomal stability assay is used for early assessment of metabolic stability of a test compound in human liver microsomes.
Human liver microsomes (Cat.NO.: 452117, Corning, USA;Cat.NO.:H2610, Xenotech, USA) were preincubated with test compound for 10 minutes at 37° C. in 100 mM potassium phosphate buffer, pH 7.4. The reactions were initiated by adding NADPH regenerating system. The final incubation mixtures contained 1 μM test compound, 0.5 mg/mL liver microsomal protein, 1 mM MgCl2, 1 mM NADP, 1 unit/mL isocitric dehydrogenase and 6 mM isocitric acid in 100 mM potassium phosphate buffer, pH 7.4. After incubation times of 0, 3, 6, 9, 15 and 30 minutes at 37° C., 300 μL of cold acetonitrile (including internal standard) was added to 100 μL incubation mixture to terminate the reaction. Following precipitation and centrifugation, the amount of compound remaining in the samples were determined by LC-MS/MS. Controls of no NADPH regenerating system at zero and 30 minutes were also prepared and analyzed.
In general terms: Liver microsomes are a subcellular fraction often used to study metabolism.

As to `Cc1cc(N2CC3(CN(C[C@H]4CN(c5ccc(C#N)c6ncccc56)C[C@@H](C)O4)C3)C2)cc(CO)n1` [Example 1, 5-[(2S,6R)-2-[[2-[2-(hydroxymethyl)-6-methyl-4-pyridyl]-2,6-diazaspiro[3.3]heptan-6-yl]methyl]-6-methyl-morpholin-4-yl]quinoline-8-carbonitrile], the IC50 at human TLR8 turned out to be 0.081 µM. Also, in series [1], the “Clearance of Human microsome” value was found to be 6.35 mL/min/kg.
In the case of `C[C@@H]1CN(c2ccc(C#N)c3ncccc23)C[C@H](CN2CC3(C2)CN(c2ccnc(C4CC4)c2)C3)O1` [Example 49, 5-[(2S,6R)-2[[2-(2-cyclopropyl-4-pyridyl)-2,6-diazaspiro[3.3]heptan-6-yl]methyl]-6-methyl-morpholin-4-yl]quinoline-8-carbonitrile], the IC50 at human TLR8 is 0.02 µM. In addition, the “Clearance of Human microsome” value in series [1] was 6.39 mL/min/kg.
For `Cc1cc(N2CC3(CN(C[C@H]4CN(c5ccc(C#N)c6ncccc56)C[C@@H](C)O4)C3)C2)cc(C(C)O)n1` (stereo partly drawn) [Example 44, 5-[(2S,6R)-2-[[2-[2-(1-hydroxyethyl)-6-methyl-4-pyridyl]-2,6-diazaspiro[3.3]heptan-6-yl]methyl]-6-methyl-morpholin-4-yl]quinoline-8-carbonitrile] the same measures were 0.03 µM and 7.21 mL/min/kg.
For the molecule `Cc1cc(NC2CCN(C[C@H]3CN(c4ccc(C#N)c5ncccc45)C[C@@H](C)O3)CC2)cc(CO)n1` [Example 5], the IC50 on human TLR8 came out at 0.033 µM. For the same molecule, the “Clearance of Human microsome” value in series [1] is reported as 7.47 mL/min/kg.
`Cc1cc(NC2CCN(C[C@H]3CN(c4ccc(C#N)c5ncccc45)C[C@@H](C)O3)C2)cc(CO)n1` (stereo partly shown) [Example 6]: the IC50 on human TLR8 came out at 0.053 µM. Further, the “Clearance of Human microsome” value in series [1] worked out at 6.15 mL/min/kg.
Take `C[C@@H]1CN(c2ccc(C#N)c3ncccc23)C[C@H](CNC2CCN(c3ccnc(N)c3)CC2)O1` [Example 20, 5-[(2S,6R)-2-[[[1-(2-amino-4-pyridyl)-4-piperidyl]amino]methyl]-6-methyl-morpholin-4-yl]quinoline-8-carbonitrile]: at human TLR8, the IC50 came to 0.07 µM. The “Clearance of Human microsome” value in series [1] stood at 6.15 mL/min/kg.
Consider `Cc1cc(N2CC(NC[C@H]3CN(c4ccc(C#N)c5ncccc45)C[C@@H](C)O3)C2)cc(CO)n1` [Example 30], for which the IC50 on human TLR8 stood at 0.014 µM. For the same molecule, the “Clearance of Human microsome” value in series [1] is 7.14 mL/min/kg.
As to `CC(O)c1cc(N2CC3(CN(C[C@H]4CN(c5ccc(C#N)c6ncccc56)C[C@@H](C)O4)C3)C2)ccn1` (stereo partly drawn) [Example 46, 5-[(2S,6R)-2-[[2-[2-(1-hydroxyethyl)-4-pyridyl]-2,6-diazaspiro[3.3]heptan-6-yl]methyl]-6-methyl-morpholin-4-yl]quinoline-8-carbonitrile], at human TLR8, the IC50 was found to be 0.09 µM. Further, in series [1], the “Clearance of Human microsome” value was 7.66 mL/min/kg.
`Cc1cc(NC2CN(C[C@H]3CN(c4ccc(C#N)c5ncccc45)C[C@@H](C)O3)C2)cc(C)n1` [Example 7]: the IC50 on human TLR8 amounted to 0.031 µM. Also, the “Clearance of Human microsome” value in series [1] is given as 6.15 mL/min/kg.
Take `Cc1cc(N2CCC3(CN(C[C@H]4CN(c5ccc(C#N)c6ncccc56)C[C@@H](C)O4)C3)C2)cc(C)n1` [Example 9]: on human TLR8, the IC50 was found to be 0.051 µM. Moreover, in series [1], the “Clearance of Human microsome” value was 6.15 mL/min/kg.
Take `Cc1cc(N2CCN(C[C@H]3CN(c4ccc(C#N)c5ncccc45)C[C@@H](C)O3)CC2)cc(CO)n1` [Example 50]: the IC50 at human TLR8 came to 0.004 µM. Besides, the “Clearance of Human microsome” value in series [1] was found to be 7.72 mL/min/kg.
The corresponding values for `Cc1cc(N2CCN(C[C@H]3CN(c4ccc(C#N)c5ncccc45)C[C@@H](C)O3)[C@@H](C)C2)cc(CO)n1` [Example 4A] are 0.007 µM and 6.15 mL/min/kg.
The corresponding values for `Cc1cc(N2CC(N(C)C[C@H]3CN(c4ccc(C#N)c5ncccc45)C[C@@H](C)O3)C2)cc(CO)n1` [Example 37] are under 0.003 µM and 6.15 mL/min/kg.
The corresponding values for `C[C@@H]1CN(c2ccc(C#N)c3ncccc23)C[C@H](CN2CC3(C2)CN(c2ccnc(C(C)(C)O)c2)C3)O1` [Example 48, 5-[(2S,6R)-2[[2-[2-(1-hydroxy-1-methyl-ethyl)-4-pyridyl]-2,6-diazaspiro[3.3]heptan-6-yl]methyl]-6-methyl-morpholin-4-yl]quinoline-8-carbonitrile] are 0.198 µM and 6.87 mL/min/kg.
